Reference: publication PMC4225773 (Bioorganic & medicinal chemistry letters, 2014)
≈ marks a conversion by molar mass, not a printed value. Like-named read-outs stand apart in the source and are kept apart here. Marks after values point to notes of the source that are not given here.

Columns and labels:
[1] = tested on: Intra-macrophage Amastigote Stage of L. donovani
[2] = tested on: promastigote stage of L. donovani; experiment: Alamar blue
in vitro = conditions: human
HDAC6 = conditions: cited from earlier work; for IC50: read-out: HDAC6 IC50, NI = No Inhibition at maximum tested concentration of 10 µM (percentage inhibition < 20%); for HDAC6 % inhibition at 10 µM: given if the IC50 was above 10 µM
HDAC8 = conditions: read-out: HDAC8 IC50; NI = No Inhibition at maximum tested concentration of 10 µM (percentage inhibition < 20%); cited from earlier work
[3] = Cytotoxicity to uninfected THP1 macrophage cells; conditions: human
[4] = tested on: Intra-macrophage Amastigote Stage of L. donovani; experiment: Amastigote-macrophage assay; conditions: for Cytotoxic activity against intra-macrophage amastigote (in words): THP1 host cells, 3HP values in Table S1 (not available); for Potency enhancement, intra-macrophage amastigote relative to axenic amastigote: comparing Tables 1 and 2
[5] = tested on: axenic amastigote of L. donovani; experiment: Alamar blue; format: cell-based
[6] = L. donovani promastigote, maximum concentration tested 40 µg/mL
[7] = uninfected THP1 macrophage cells
[8] = L. donovani axenic amastigote, maximum tested concentration 40 µg/mL

| SMILES | IC50 (HDAC6) | IC50 (HDAC8) | IC50 [3, 7] | also measured |
| --- | --- | --- | --- | --- |
| C[C@@H]1[C@H](O)[C@@H](C)/C=C/C=C/C=C/C=C/C=C/C=C/C=C/[C@H](O[C@@H]2O[C@H](C)[C@@H](O)[C@H](N)[C@@H]2O)C[C@@H]2O[C@](O)(C[C@@H](O)C[C@@H](O)[C@H](O)CC[C@@H](O)C[C@@H](O)CC(=O)O[C@H]1C)C[C@H](O)[C@H]2C(=O)O [Amphotericin B] | – | – | – | Cytotoxic activity against intra-macrophage amastigote (in words) [1]: potently cytotoxic; IC50 ([2]; Leishmania donovani, read-out: Promastigote IC50): 0.4 µg/mL (≈ 0.433 µM); IC50 (in vitro): > 10 µg/mL |
| Oc1cccnc1O [Compound 1a] | > 10000 nM | > 10000 nM | – | Cytotoxicity to promastigote stage (in words) [2, 6]: inactive |
| Oc1ccc[nH]c1=S [Compound 1b] | 681 ± 110 nM | 3680 ± 1200 nM | > 10 µg/mL | Cytotoxicity to promastigote stage (in words) [2, 6]: weakly cytotoxic |
| O=c1c(O)cccn1Cc1ccccc1 [Compound 2a] | > 10000 nM | > 10000 nM | – | – |
| Oc1cccn(Cc2ccccc2)c1=S [Compound 2b] | 457 ± 27 nM | 1270 ± 200 nM | > 10 µg/mL | – |
| O=c1c(O)cccn1Cc1ccc(-c2ccccc2)cc1 [Compound 3a] | > 10000 nM | > 10000 nM | – | Cytotoxic activity against intra-macrophage amastigote (in words) [4]: moderate to good cytotoxic activities |
| Oc1cccn(Cc2ccc(-c3ccccc3)cc2)c1=S [Compound 3b] | 847 ± 188 nM | 4280 ± 1550 nM | > 10 µg/mL | Potency enhancement, intra-macrophage amastigote relative to axenic amastigote [4]: 5- to 25 fold |
| N#Cc1ccc(-c2ccc(Cn3cccc(O)c3=O)cc2)cc1 [Compound 4a] | > 10000 nM | > 10000 nM | – | Cytotoxicity to axenic amastigote (in words) [5, 8]: about equipotent to both stages of L. donovani; Cytotoxic activity against intra-macrophage amastigote (in words) [4]: moderately active |
| N#Cc1ccc(-c2ccc(Cn3cccc(O)c3=S)cc2)cc1 [Compound 4b] | 957 ± 159 nM | 2080 ± 459 nM | > 10 µg/mL | Potency enhancement, intra-macrophage amastigote relative to axenic amastigote [4]: 5- to 25 fold |
| N#Cc1cccc(-c2ccc(Cn3cccc(O)c3=O)cc2)c1 [Compound 5a] | > 10000 nM | > 10000 nM | – | Cytotoxic activity against intra-macrophage amastigote (in words) [4]: moderate to good cytotoxic activities |
| N#Cc1cccc(-c2ccc(Cn3cccc(O)c3=S)cc2)c1 [Compound 5b] | – | 1700 ± 717 nM | > 10 µg/mL | HDAC6 % inhibition at 10 µM (HDAC6): 44% ^† |
| N#Cc1ccccc1-c1ccc(Cn2cccc(O)c2=O)cc1 [Compound 6a] | > 10000 nM | > 10000 nM | – | – |
| N#Cc1ccccc1-c1ccc(Cn2cccc(O)c2=S)cc1 [Compound 6b] | 372 ± 35 nM | 1910 ± 771 nM | > 10 µg/mL | Cytotoxic activity against intra-macrophage amastigote (in words) [4]: inactive |
| Cc1ccc(-c2ccc(Cn3cccc(O)c3=O)cc2)cc1 [Compound 7a] | > 10000 nM | > 10000 nM | – | – |
| Cc1ccc(-c2ccc(Cn3cccc(O)c3=S)cc2)cc1 [Compound 7b] | 454 ± 42 nM | 800 ± 304 nM | > 10 µg/mL | – |
| Cc1cccc(-c2ccc(Cn3cccc(O)c3=O)cc2)c1 [Compound 8a] | > 10000 nM | > 10000 nM | – | – |

| SMILES | IC50 (HDAC6) | IC50 (HDAC8) | IC50 [3, 7] | also measured |
| --- | --- | --- | --- | --- |
| Cc1cccc(-c2ccc(Cn3cccc(O)c3=S)cc2)c1 [Compound 8b] | 812 ± 286 nM | 2500 ± 1180 nM | > 10 µg/mL | Cytotoxic activity against intra-macrophage amastigote (in words) [4]: inactive |
| Cc1ccccc1-c1ccc(Cn2cccc(O)c2=O)cc1 [Compound 9a] | > 10000 nM | > 10000 nM | – | – |
| Cc1ccccc1-c1ccc(Cn2cccc(O)c2=S)cc1 [Compound 9b] | 306 ± 69 nM | 3100 ± 1650 nM | > 10 µg/mL | – |
| CN(C)c1ccc(-c2ccc(Cn3cccc(O)c3=O)cc2)cc1 [Compound 10a] | > 10000 nM | > 10000 nM | – | Cytotoxicity to axenic amastigote (in words) [5, 8]: about equipotent to both stages of L. donovani |
| CN(C)c1ccc(-c2ccc(Cn3cccc(O)c3=S)cc2)cc1 [Compound 10b] | > 10000 nM | 2860 ± 944 nM | > 10 µg/mL | Potency enhancement, intra-macrophage amastigote relative to axenic amastigote [4]: 5- to 25 fold |
| CN(C)c1ccc(-c2ccc(Cn3cccc(O)c3=O)cc2)cn1 [Compound 11a] | > 10000 nM | > 10000 nM | – | – |
| CN(C)c1ccc(-c2ccc(Cn3cccc(O)c3=S)cc2)cn1 [Compound 11b] | 2390 ± 458 nM | > 10000 nM | > 10 µg/mL | – |
| O=c1c(O)cccn1Cc1cn(-c2ccccc2)nn1 [Compound 12a] | > 10000 nM | > 10000 nM | – | – |
| Oc1cccn(Cc2cn(-c3ccccc3)nn2)c1=S [Compound 12b] | – | 1570 ± 1070 nM | > 10 µg/mL | HDAC6 % inhibition at 10 µM (HDAC6): 41% ^† |
| CN(C)c1ccc(-n2cc(Cn3cccc(O)c3=O)nn2)cc1 [Compound 13a] | > 10000 nM | > 10000 nM | – | Cytotoxic activity against intra-macrophage amastigote (in words) [4]: moderate to good cytotoxic activities |
| CN(C)c1ccc(-n2cc(Cn3cccc(O)c3=S)nn2)cc1 [Compound 13b] | 1020 ± 99 nM | 1870 ± 723 nM | > 10 µg/mL | – |
| COc1ccc(Cn2ccc3ccc(C(=O)NO)cc32)cc1 [PCI-34051, reference compound] | – | – | – | IC50 [3]: > 10 µg/mL; Cytotoxicity to promastigote stage (in words) [2, 6]: minimal effect; Cytotoxic activity against intra-macrophage amastigote (in words) [4]: inactive |
| N=C(N)c1ccc(OCCCCCOc2ccc(C(=N)N)cc2)cc1 [Pentamidine, pentamidine] | – | – | – | Cytotoxic activity against intra-macrophage amastigote (in words) [1]: potently cytotoxic; IC50 (in vitro): > 10 µg/mL |
| O=C(CCCCCCC(=O)Nc1ccccc1)NO [SAHA, suberoylanilide hydroxamic acid, reference compound] | – | – | – | Cytotoxicity to promastigote stage (in words) [2]: minimal effect; Cytotoxicity to axenic amastigote (in words) [5]: non-toxic |
| CN1CCc2c(c3ccccc3n2Cc2ccc(C(=O)NO)cc2)C1 [Tubastatin A, reference compound] | – | – | > 10 µg/mL | – |
